# Assay results taken from patent EP0567562B1, “METHODS FOR DETECTING GLUCAGON ANTAGONISTS” (ZYMOGENETICS, INC., priority 1991, dated 1996).
# Test system: glucagon receptor
# Assay: Glucagon antagonist screening assay: adenylate cyclase reaction with rat liver membranes, cAMP measured by Scintillation Proximity Assay
# Assay type: biochemical
# Source text: Young female Sprague-Dawley rats were used for the preparation of liver membranes using the method essentially described by Neville (ibid.) and modified by Pohl et al. (ibid). Ten to 15 rats yielding 60-100 grams of liver were processed per batch. After the rats were euthanized by cervical dislocation, their livers were surgically removed and transferred, as quickly as possible, to an iced beaker. Scissors were used to mince the tissue into pieces approximately 3-6 mm in size. Any connective tissue that was present was removed.
# The minced tissue was suspended in ice cold 1 mM sodium bicarbonate at a concentration of approximately 300 g/I. This suspension was processed in batches in a tissue homogenizer with eight strokes of the loose pestle. […]
# After centrifugation, as much of the supernatant as possible was carefully decanted and discarded, and the pellets were gently resuspended in the remaining supernatant with three strokes of the loose pestle in a clean tissue homogenizer. […] After thorough mixing, the sucrose concentration was measured with a refractometer and adjusted to between 43.9% and 44 1% sucrose (corresponding to a refractive index between 1.4076 and 1.4080) with either 69% sucrose or water. […]
Molecule,"antagonist activity: CAMP response of rat liver membranes to three concentrations of glucagon (culture broth of the yeast strain, compared with control strains making des-His^1-glucagon and des-His^1-[Glu^9]glucagon)","stimulation of adenylate cyclase activity by culture broth in the absence of exogenous glucagon (yeast culture broth, no exogenous glucagon)"
CSCC[C@H](NC(=O)[C@H](CC(C)C)NC(=O)[C@H](Cc1c[nH]c2ccccc12)NC(=O)[C@H](CCC(N)=O)NC(=O)[C@@H](NC(=O)[C@H](Cc1ccccc1)NC(=O)[C@H](CC(=O)O)NC(=O)[C@H](CCC(N)=O)NC(=O)[C@H](C)NC(=O)[C@H](CCCNC(=N)N)NC(=O)[C@H](CCCNC(=N)N)NC(=O)[C@H](CO)NC(=O)[C@H](CC(=O)O)NC(=O)[C@H](CC(C)C)NC(=O)[C@H](Cc1ccc(O)cc1)NC(=O)[C@H](CCCCN)NC(=O)[C@H](CO)NC(=O)[C@H](Cc1ccc(O)cc1)NC(=O)[C@H](CC(=O)O)NC(=O)[C@H](CO)NC(=O)[C@@H](NC(=O)[C@H](Cc1ccccc1)NC(=O)[C@@H](NC(=O)CNC(=O)[C@H](CCC(N)=O)NC(=O)[C@@H](N)CO)[C@@H](C)O)[C@@H](C)O)C(C)C)C(=O)N[C@@H](CC(N)=O)C(=O)N[C@H](C(=O)O)[C@@H](C)O [des-His^1-glucagon],weak antagonist,–
glucagon [ZB210],–,stimulation of adenylate cyclase activity even in the absence of exogenous glucagon
